What was measured:
[1] = test system: Table apple, type Zabergäu-Renette (C2); assay: Greenhouse test, cut apple branches C2 dipped in test solution, bud development stage; type: in vivo, Malus domestica; set-up: key to Bud development stage, apple branches C2: Stage 0: Buds unchanged; Stage 1: Buds slightly swollen, first green tips visible; Stage 2: strongly swollen, green buds; Stage 3: Buds before breaking open, leaf or flower root already visible; Stage 4: Flower buds fully developed, but still closed, white petals already visible. In the case of the grapevine, stage 4 was the unfolding of the first leaves; Stage 5: Flowers fully open or, in the case of grapevine, unfolding of the flower roots (“Gescheine”) on the fully leafed sprouts; conditions: for Dormancy-breaking effect according to the definition, apple C2: stage 4 reached or exceeded after 36 days vs negative control
Procedure: Greenhouse tests were conducted using cut fruit tree branches placed in water jars and maintained under controlled conditions with temperature regulation at approximately 22° C. and natural lighting. C2: Table Apple, Type […] Table apple: Malus domestica type […] first developed in 1885 as a chance seedling in Hausen a.d. Zaber/Baden-Württemberg and initially grown as 'Hausener Graue […]'. No defined storage type; requires heavy soils (loam). Tree growth initially strong with oblique upright leading branches, later medium with flat branches. Crown broad and flat-spherical with flat fruiting wood. Leaves large, broad oval and with clearly separated tip. Triploid type with late and long-lasting flowering. Yield starting early, medium high and somewhat alternate. […] The test solutions were prepared directly, i.e. without intermediate preparation of a concentrate. For each of the test substances A-1 to A-13, an aqueous solution of 0.15 mol of the test substance and 0.15 g BreakThru® OE-446 was prepared and filled up to a total of 500 g with water. Of bis-cyanamides A-14 and A-15, 0.075 mol each was filled up to 500 g in an analogous manner. These test solutions (in combination with the above 4 species/types Cx) were given the test numbers Cx-A1 to Cx-A15. […] This was done with the following evaluation scale: • Stage 0: […] Flower buds fully developed, but still closed, white petals already visible. […] Flowers fully open or, in the case of grapevine, unfolding of the flower roots (“[…]”) on the fully leafed sprouts.

[2] = test system: Table cherry, type Burlat (C3); assay: Greenhouse test, cut cherry branches C3 dipped in test solution, bud development stage; type: in vivo, Prunus avium; set-up: key to Bud development stage, cherry branches C3: Stage 0: Buds unchanged; Stage 1: Buds slightly swollen, first green tips visible; Stage 2: strongly swollen, green buds; Stage 3: Buds before breaking open, leaf or flower root already visible; Stage 4: Flower buds fully developed, but still closed, white petals already visible. In the case of the grapevine, stage 4 was the unfolding of the first leaves; Stage 5: Flowers fully open or, in the case of grapevine, unfolding of the flower roots (“Gescheine”) on the fully leafed sprouts
Procedure: Greenhouse tests were conducted using cut fruit tree branches placed in water jars and maintained under controlled conditions with temperature regulation at approximately 22° C. and natural lighting. C3: Table Cherry, Type Burlat Table cherry: Prunus avium type Bigarreau Burlat or […] is a strong-growing somewhat sparse growing sweet cherry tree with horizontal side sprouts. The type has been known since 1930 and is one of the most important types in commercial cultivation. […] Medium but regular yields identify the type as a secondary type for early and dry areas. […] The test solutions were prepared directly, i.e. without intermediate preparation of a concentrate. For each of the test substances A-1 to A-13, an aqueous solution of 0.15 mol of the test substance and 0.15 g BreakThru® OE-446 was prepared and filled up to a total of 500 g with water. Of bis-cyanamides A-14 and A-15, 0.075 mol each was filled up to 500 g in an analogous manner. These test solutions (in combination with the above 4 species/types Cx) were given the test numbers Cx-A1 to Cx-A15. […] This was done with the following evaluation scale: • Stage 0: […] Flower buds fully developed, but still closed, white petals already visible. […] Flowers fully open or, in the case of grapevine, unfolding of the flower roots (“[…]”) on the fully leafed sprouts.

[3] = test system: Table apple, type Boiken apple (C1); assay: Greenhouse test, cut apple branches C1 dipped in test solution, bud development stage; type: in vivo, Malus domestica; set-up: key to Bud development stage, apple branches C1: Stage 0: Buds unchanged; Stage 1: Buds slightly swollen, first green tips visible; Stage 2: strongly swollen, green buds; Stage 3: Buds before breaking open, leaf or flower root already visible; Stage 4: Flower buds fully developed, but still closed, white petals already visible. In the case of the grapevine, stage 4 was the unfolding of the first leaves; Stage 5: Flowers fully open or, in the case of grapevine, unfolding of the flower roots (“Gescheine”) on the fully leafed sprouts; conditions: for Dormancy-breaking effect according to the definition, apple C1: stage 4 reached or exceeded after 36 days vs negative control
Procedure: Greenhouse tests were conducted using cut fruit tree branches placed in water jars and maintained under controlled conditions with temperature regulation at approximately 22° C. and natural lighting. C1: Table Apple, Type Boiken Apple Table apple: Malus domestica type Boiken first described in 1828 in Bremen after Deichvogt Boiken. Apple type for rough locations and for almost every soil suitable scattered fruit type, whereby heavy soils and not too warm locations are required. Tree growth initially strong, later medium. Older crowns become broadly spherical and are loosely branched. Flowering starting medium-late and long lasting, petals large with little pink. Yield starting late (October) and irregular; with long shelf life and pressure resistance. […] The test solutions were prepared directly, i.e. without intermediate preparation of a concentrate. For each of the test substances A-1 to A-13, an aqueous solution of 0.15 mol of the test substance and 0.15 g BreakThru® OE-446 was prepared and filled up to a total of 500 g with water. Of bis-cyanamides A-14 and A-15, 0.075 mol each was filled up to 500 g in an analogous manner. These test solutions (in combination with the above 4 species/types Cx) were given the test numbers Cx-A1 to Cx-A15. […] This was done with the following evaluation scale: • Stage 0: […] Flower buds fully developed, but still closed, white petals already visible. […] Flowers fully open or, in the case of grapevine, unfolding of the flower roots (“[…]”) on the fully leafed sprouts.

[4] = test system: Grape, type Pinot Noir (C4); assay: Greenhouse test, cut wine sprouts C4 dipped in test solution, bud development stage; type: in vivo, Vitis vinifera subsp. vinifera; set-up: key to Bud development stage, wine sprouts C4: Stage 0: Buds unchanged; Stage 1: Buds slightly swollen, first green tips visible; Stage 2: strongly swollen, green buds; Stage 3: Buds before breaking open, leaf or flower root already visible; Stage 4: Flower buds fully developed, but still closed, white petals already visible. In the case of the grapevine, stage 4 was the unfolding of the first leaves; Stage 5: Flowers fully open or, in the case of grapevine, unfolding of the flower roots (“Gescheine”) on the fully leafed sprouts; conditions: for Dormancy-breaking effect according to the definition, wine C4: stage 4 reached or exceeded after 36 days vs negative control
Procedure: Greenhouse tests were conducted using cut fruit tree branches placed in water jars and maintained under controlled conditions with temperature regulation at approximately 22° C. and natural lighting. C4: Grape, Type Pinot Noir Grape: Vitis vinifera subsp. vinifera type Pinot Noir is an important and high quality red wine type that has existed for possibly 2000 years. It is cultivated all over the world because the type produces high quality red wines and has sufficient winter frost resistance. The type requires early and good areas with deep, warm, medium-heavy and fertile soils with good water supply. Pinot Noir produces regular, medium-high to high yields. However, there are a large number of clones that differ in yield, berry size and looseness. […] The test solutions were prepared directly, i.e. without intermediate preparation of a concentrate. For each of the test substances A-1 to A-13, an aqueous solution of 0.15 mol of the test substance and 0.15 g BreakThru® OE-446 was prepared and filled up to a total of 500 g with water. Of bis-cyanamides A-14 and A-15, 0.075 mol each was filled up to 500 g in an analogous manner. These test solutions (in combination with the above 4 species/types Cx) were given the test numbers Cx-A1 to Cx-A15. […] This was done with the following evaluation scale: • Stage 0: […] Flower buds fully developed, but still closed, white petals already visible. […] Flowers fully open or, in the case of grapevine, unfolding of the flower roots (“[…]”) on the fully leafed sprouts.

[5] = T1 (14 d), 0.15 mol (A-14, A-15: 0.075 mol) per 500 g solution
[6] = stage 4 reached or exceeded after 27 days vs negative control

SMILES	Bud development stage, apple branches C2 [1, 5]	Bud development stage, apple branches C2 ([1]; T2 (16 d))	Bud development stage, apple branches C2 ([1]; T3 (21 d))	Bud development stage, apple branches C2 ([1]; T4 (27 d))	Bud development stage, apple branches C2 ([1]; T5 (36 d))	Bud development stage, apple branches C2 ([1]; T6 (56 d))	Dormancy-breaking effect according to the definition, apple C2 [1]	Bud development stage, cherry branches C3 [2, 5]	Bud development stage, cherry branches C3 ([2]; T2 (16 d))	Bud development stage, cherry branches C3 ([2]; T3 (21 d))	Bud development stage, cherry branches C3 ([2]; T4 (27 d))	Bud development stage, cherry branches C3 ([2]; T5 (36 d))	Bud development stage, cherry branches C3 ([2]; T6 (56 d))	Bud development stage, apple branches C1 [3, 5]	Bud development stage, apple branches C1 ([3]; T2 (16 d))	Bud development stage, apple branches C1 ([3]; T3 (21 d))	Bud development stage, apple branches C1 ([3]; T4 (27 d))	Bud development stage, apple branches C1 ([3]; T5 (36 d))	Bud development stage, apple branches C1 ([3]; T6 (56 d))	Dormancy-breaking effect according to the definition, apple C1 [3]	also measured
N#CNC=O.[Na] [Example A-2, Sodium Formylcyanamide]	0	0	1	3	5	5	dormancy-breaking effect	1	2	5	5	5	5	0	0	4	5	5	5	dormancy-breaking effect	Good to very good dormancy-breaking effect, cherry C3 ([2]; stage 4 reached or exceeded after 21 days vs negative control): good to very good dormancy-breaking effect; Dormancy-breaking effect according to the definition, cherry C3 [2, 6]: dormancy-breaking effect; Good to very good dormancy-breaking effect, apple C1 [3, 6]: good to very good dormancy-breaking effect; Bud development stage, wine sprouts C4 [4, 5]: 0; Bud development stage, wine sprouts C4 ([4]; T2 (16 d)): 1; Bud development stage, wine sprouts C4 ([4]; T3 (21 d)): 3; Bud development stage, wine sprouts C4 ([4]; T4 (27 d)): 5; Bud development stage, wine sprouts C4 ([4]; T5 (36 d)): 5; Bud development stage, wine sprouts C4 ([4]; T6 (56 d)): 5; Effect compared with cyanamide, wine C4 ([4]; in vivo): equal effect with cyanamide; Good to very good dormancy-breaking effect, wine C4 [4, 6]: good to very good dormancy-breaking effect; Dormancy-breaking effect according to the definition, wine C4 [4]: dormancy-breaking effect
COC(=O)NC#N.[Na] [Example A-3, Sodium methoxy carbonyl cyanamide]	0	0	0	2	4	4	dormancy-breaking effect	0	0	0	1	3	5	1	1	2	3	4	5	dormancy-breaking effect	Bud development stage, wine sprouts C4 [4, 5]: 0; Bud development stage, wine sprouts C4 ([4]; T2 (16 d)): 0; Bud development stage, wine sprouts C4 ([4]; T3 (21 d)): 0; Bud development stage, wine sprouts C4 ([4]; T4 (27 d)): 1; Bud development stage, wine sprouts C4 ([4]; T5 (36 d)): 5; Bud development stage, wine sprouts C4 ([4]; T6 (56 d)): 5; Dormancy-breaking effect according to the definition, wine C4 [4]: dormancy-breaking effect
